Test results published in patent US12310967B2, “Compositions and methods of treatment for neurological disorders comprising motor neuron diseases” (Gliapharm SA, priority 2017, dated 2025).

Legend:
primary astrocytes [1] = assay: High throughput screening (HTS) for lactate secretion: acidification of extracellular medium (SNARF5); assay type: cell-based, mouse; set-up: key to Score / HTS Score (SNARF5) / Score_SNARF: fraction of plate positive-control activity (1 = 100%); details: for Score_SNARF: primary screening confirmation (SNARF5)
Protocol: Primary cultures of cerebrocortical astrocytes were obtained from 1-2-day-old OF1 mouse pups (Charles River Laboratories). Briefly, cortices were isolated and minced in small pieces under a dissecting microscope. The cells were incubated for 30 min at 37° C. in a solution containing 20 U/ml of papain enzyme (Worthington Biochemical), L-cysteine 1 mM (Sigma), and 10 kU/ml DNase I (Worthington Biochemical) for an enzymatic dissociation. Papain activity was stopped by the addition of fetal calf serum (FCS) to the solution, and a single-cell suspension was then obtained by mechanical dissociation, which consisted in cells trituration in a DMEM (D7777, Sigma-Aldrich) medium (supplemented with 44 mm NaHCO3, and 10 ml/L antibiotic/antimycotic solution) containing 10% FCS. The cells were seeded at an average density of 6×10^4 cells/cm^2 in poly-D-lysine-coated 96, 12 or 6-well culture plates, depending on their use, and incubated at 37° C. in a humidified atmosphere containing 5% CO2/95% air. Culture medium was renewed twice per week. Cells were stimulated and harvested between DIV14 and DIV17, when confluence and cell growth were optimal.
Secretion of lactate in a high-throughput screening (HTS) fashion was measured indirectly through the acidification of extracellular medium. To this end, primary astrocytes grown in 96-well plates for 17 days were stimulated with the compounds as listed herein.
After washing the cells twice with stimulation medium (DMEM (D5030, Sigma), 3 mM NaHCO3 and 5 mM Glucose) at 37° C., cells were stimulated with the compounds at a final concentration of 10 uM (1% DMSO final) in 50 ul per well of stimulation medium supplemented with 10 uM of the extracellular pH sensor SNARF-5F %-(AND-6)-CAR (Life Technologies Corporation). Each compound was tested in two different plates for duplicates.
After 90 min stimulation, fluorescence was read at exc. (excitation) 480 nm/emm. (emission) 580 nm and at exc 480 nm/emm. 630 nm. The ratio of fluorescence between 630 nm and 580 emission values, which represents extracellular pH, was calculated.
In each plate, 8 wells were used for negative controls (DMSO) and 8 wells were used for positive controls (CCCP 2 uM in DMSO). Z prime values were calculated for each of the plates tested and values<0 were discarded.
The average and SD of compounds' values tested in duplicates were calculated, and compound was noted as HIT when the difference between compound's average and negative control's average was greater than three times the sum of compound's SD and negative controls' SD. Only scores greater than 40% were considered as lead Hits for the CDC54K library; for the remaining libraries, all hits were considered. Scores are calculated as the % of activity compared to the positive control in each plate (which is 100%).
Primary screening hits were cherry picked on new plates and confirmed for SNARF5 effect, after having discarded those compounds that are fluorescent (exc. 480 nm/emm. 580 nm or 630 nm) before stimulation. Extracellular medium was next analyzed for extracellular lactate quantification for secondary screening.
Identification of lactate-enhancing drugs with high throughput screening (HTS) experiments on astrocytes primary cultures using extracellular pH dye (SNARF5F 5-(and-6)-carboxylic acid) for 90 min. The procedure is described in Material and Methods (2. Cell culture, 2.1. HTS for lactate secretion and 2.2. Extracellular lactate quantification).
The procedure was performed as follows: • Primary screening: acidification of the extracellular medium • Primary screening confirmation: acidification of the extracellular medium, removal of compounds with fluorescent activity at exc. 480 nm/emm. 580 nm or 630 n. • Secondary screening: dosage of extracellular lactate

primary astrocytes [2] = assay: Extracellular lactate quantification; assay type: cell-based, mouse; details: for Score_LACTATE: Appendix I, secondary screening: extracellular lactate; for Score Lact. / EC50: Appendix II; for Score Lact.: CDC54K library; for EC50: Mus musculus, Astrocyte, lactate secretion, read-out: EC50
Protocol: Secretion of L-lactate was determined in the extracellular medium of 96-well plated astrocytes after 90 min stimulation (at 37° C., in 5% CO2/95% air conditions) with the drug of interest. The stimulation medium was composed of D5030 medium (completed with D-glucose 5 mM and 44 mM sodium bicarbonate) for 90 min in concentrations ranging from 0 to 100 μM.
Briefly, 200 μl of a Glycine (Sigma)-Semicarbazide (Acros) 0.2M pH 10 buffer containing 3 mM NAD (Roche) and LDH 14 U/ml (Roche) was added to each well of a 96-well plate containing 30 μl aliquots complemented with 20 μl fresh complete D5030 medium. Samples were incubated at 37° C. for 1 h. After samples cooled down at room temperature, the fluorescence intensity (340 nm excitation/450 nm emission) that represents the amount of NADH produced was measured, and lactate concentration values were determined from a standard curve of L-lactate.
Statistical analysis consisted in ANOVA followed by Fisher LSD post-hoc test for pair-wise comparisons.
Levels of lactate secreted by astrocytes were measured in the extracellular medium at 90 min after stimulation with hits (molecules) from the CDC54K library.

[3] = Appendix I, CDC54K primary screening, 10 uM, 90 min, relative to CCCP 2 uM

Structure (SMILES) | Score_SNARF (primary astrocytes [1]; Appendix I) | Score_LACTATE (primary astrocytes [2]) | further results
c1csc(C(Nc2ncnc3sccc23)C2CC2)c1 (stereo not drawn) [T5713637] | 1.184 | 1.287 | –
COc1ccccc1S(=O)(=O)Nc1ccc2nc(C)sc2c1 [T5246417] | 0.2455 | 0 | –
FC(F)(F)c1cccc(CNc2ncnc3sccc23)c1 [T5346988] | 0.9569 | 0.9327 | –
OC1(c2ccccc2)C[N+](c2ccc(Cl)cc2)=C2CCCCN21.[Br-] (stereo not drawn) [F0524-0488] | 0.3489 | 0 | –
COc1ccc(C2SCCN2S(=O)(=O)c2ccc(C)c(C)c2)cc1OC (stereo not drawn) [F1462-0491] | 0 | 0 | –
CCNC(=O)C1CCCN(c2ncnc3oc(C)c(C)c23)C1 (stereo not drawn) [F228-0534] | 0.5203 | 0.3387 | –
COc1ccc(C2(O)C[N+](c3ccccc3C)=C3CCCCCN32)cc1OC (stereo not drawn) [K404-0906] | 0 | 0 | –
CNC(=O)C1CCCN(c2ncnc3oc(C)c(C)c23)C1 (stereo not drawn) [F228-0541] | 0.3609 | 0 | –
CC(C)OCCCNc1ncnc2c1CCC2 [T636-0027] | 0 | 0 | –
COc1ccc(C)cc1NS(=O)(=O)c1cc(-c2ccnn2C)cs1 [L924-0830] | 0.7153 | 0.9168 | –
COc1cccc(CNc2ncnc3c2CCC3)c1 [T636-0134] | 0 | 0.3283 | –
COc1ccc(CN2CCN(c3ncnc4c3CCC4)CC2)cc1OC [T636-2007] | 0.8596 | 0.9841 | –
COc1ccc(C2(O)C[N+](c3cccc(C)c3)=C3CCCCN32)cc1 (stereo not drawn) [K404-0796] | 0.6402 | 0 | –
Cn1nccc1-c1csc(S(=O)(=O)Nc2ccc(F)cc2)c1 [L924-0760] | 0.7695 | 0.7898 | –
CC(Nc1ncnc2sccc12)c1ccccn1 (stereo not drawn) [T5672380] | 0.7508 | 0.5883 | Score Lact. (primary astrocytes [2]): 0.58
COc1ccccc1[N+]1=C2CCCCCN2C(O)(c2ccccc2)C1 (stereo not drawn) [K404-0838] | 0.8328 | 1.051 | –
Cc1cccc([N+]2=C3CCCCN3C(O)(c3ccc(Cl)cc3)C2)c1 (stereo not drawn) [K404-0800] | 0.7386 | 0.8385 | –
O=C(NCc1ccccc1)NC1CCN(c2ncnc3c2CCC3)C1 (stereo not drawn) [T636-1210] | 0.4305 | 0.3226 | –
c1ccc(C(Nc2ncnc3sccc23)C2CC2)cc1 (stereo not drawn) [T6016487] | 1.081 | 1.857 | –
Cc1ccc(F)cc1NC(=O)Cc1nn(C)c(=O)c2ccccc12 [T6302989] | 0.4072 | 0 | –
O=C(c1ccco1)N1CCCn2nc(-c3ccc(C(F)(F)F)cc3)cc2C1 [T200-0370] | 0.3804 | 0.2896 | –
Cc1ccccc1NS(=O)(=O)c1ccc2onc(C(=O)N3CCCCC3)c2c1 [L995-0405] | 0.3724 | 0 | –
COc1ccc(OC)c([N+]2=C3CCCCCN3C(O)(c3ccc(C)cc3)C2)c1 (stereo not drawn) [K404-0855] | 0.4944 | 0.6277 | –
CCOc1ccc(C2(O)C[N+](c3cc(OC)ccc3OC)=C3CCCCCN32)cc1 (stereo not drawn) [K404-0860] | 0.6137 | 0.4766 | –

Structure (SMILES) | Score_SNARF (primary astrocytes [1]; Appendix I) | Score_LACTATE (primary astrocytes [2]) | further results
COc1ccccc1[N+]1=C2CCCCCN2C(O)(c2cccc([N+](=O)[O-])c2)C1 (stereo not drawn) [K404-0842] | 0.2022 | 0 | Score (primary astrocytes [1]; [3]): 0.169
Cc1ccc(CNS(=O)(=O)c2cc(-c3noc(C4CCCC4)n3)cs2)cc1 [L287-1641] | 0.626 | 0.8035 | –
O=C(NCc1cccc(F)c1)NC1CCN(c2ncnc3c2CCC3)C1 (stereo not drawn) [T636-1243] | 0.4179 | 0 | –
O=C(C[n+]1cc(-c2ccc(Br)cc2)n2c1CCCCC2)c1ccccc1.[Br-] [T0500-4648] | 1.034 | 1.116 | –
Cc1ccsc1C(=O)NC1CCN(c2ncnc3c2CCC3)C1 (stereo not drawn) [T636-1114] | 0.6238 | 0.5477 | –
CC(=O)c1ccc(NS(=O)(=O)c2cc(-c3noc(C4CCCC4)n3)cs2)cc1 [L287-1577] | 1.059 | 1.215 | –
Cc1cccc([N+]2=C3SCCCN3C(O)(c3ccc(F)cc3)C2)c1 (stereo not drawn) [K404-0394] | 0.3309 | 0.4429 | –
O=S(=O)(Nc1ccc(O)c(Cl)c1)c1ccc2ccccc2c1 [T0517-8939] | 0.6382 | 0 | –
Cc1oc2ncnc(N3CCCC(C(=O)NCc4ccccc4)C3)c2c1C (stereo not drawn) [F228-0365] | 0.9429 | 0.9001 | –
Cn1nccc1C(=O)N1CCC(Nc2ncnc3c2CCC3)C1 (stereo not drawn) [T636-2425] | 0.2725 | 0.3027 | –
CCOc1ccc(C2(O)C[N+](c3ccccc3C)=C3CCCCN32)cc1.[Br-] (stereo not drawn) [F0524-0511] | 0.5555 | 0 | –
COc1ccc(C2(O)C[N+](c3cc(C)ccc3C)=C3SCCCN32)c(F)c1 (stereo not drawn) [K404-0183] | 0 | 0 | –
Cc1ccc(CNc2ncnc3c2CCC3)o1 [T636-0054] | 0 | 0 | –
O=C(NC1CC1)c1cccc(NS(=O)(=O)c2ccc(N3CCCC3=O)cc2)c1 [T5618591] | 0.5353 | 0.3601 | –
COc1cccc(-c2cc3n(n2)CCCN(Cc2ccncc2)C3)c1 [T202-0973] | 0.2834 | 0 | –
Cc1nc2ccc(NS(=O)(=O)c3ccccc3F)cc2s1 [T5511047] | 0.5545 | 0.3825 | –
Clc1ccc2c(c1)CCc1cccnc1C2=C1CCNCC1 [Desloratadine] | – | – | Score (primary astrocytes [1]; Prestwick library, 10 uM, 90 min, activity relative to positive control CCCP 2 uM): 0.06079; HTS Score (lactate) (primary astrocytes [1]; Prestwick library, 10 uM, 90 min, relative to positive control CCCP 2 uM): 0.061
O=C(O)C(=O)O.c1ccc(Cc2ccc(OCCn3ccnc3)cc2)cc1 [T5821723] | – | – | Score Lact. (primary astrocytes [2]): 0.73
N#Cc1cc(C(=O)c2cc(I)ccc2O)cn(-c2ccc(I)c(Cl)c2)c1=O [T0516-6894] | – | – | Score Lact. (primary astrocytes [2]): 0.38; EC50 (primary astrocytes [2]): 8.21 µM
CC1=C(C)c2c(N)nc(CCc3nc4ccccc4[nH]3)nc2C1 [T5719257] | – | – | Score Lact. (primary astrocytes [2]): 0.74; EC50 (primary astrocytes [2]): 2.85 µM
Cc1cccc([N+]2=C3CCCCCN3C(O)(c3cccc([N+](=O)[O-])c3)C2)c1 (stereo not drawn) [K404-0915] | – | – | Score (primary astrocytes [1]; [3]): 0
COc1ccc(C(C)NC(=O)c2cc(=O)c3ccccc3o2)cc1I (stereo not drawn) [T5710343] | – | – | Score Lact. (primary astrocytes [2]): 0.67; EC50 (primary astrocytes [2]): 6.31 µM
Cc1nnsc1C(=O)N1CCN(C(C)C)CC1 [Z606-5341] | – | – | Score Lact. (primary astrocytes [2]): 0.36
